Assay results reported in the supplement of paper PMC10307832.

How the values were obtained:
Assay in all cases: relative viability (nuclei count vs DMSO), 5 days (fraction); higher = more cells survive
Idelalisib + AZD7762 = compound: CC[C@H](Nc1ncnc2[nH]cnc12)c1nc2cccc(F)c2c(=O)n1-c1ccccc1 [Idelalisib] + NC(=O)Nc1cc(-c2cccc(F)c2)sc1C(=O)N[C@H]1CCCNC1 [AZD7762] (partner 0.2 µM)
Summary of the method: (§1)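 A single step with final 0.05% Triton X-100, 1% formaldehyde and 1 ug/ml Hoechst fixed the cells and stained nuclei 5 days after treatment. Lung cancer cell lines in 1536-well plates had been treated by pin tool the day after seeding with one drug alone or a fixed anchor-drug dose plus five library-drug doses (not always all listed) in √10 steps, and nuclei were counted on 4× images. Relative viability is the ratio of nuclei in treated wells to nuclei in vehicle wells, taken as the median of duplicate plates.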

Pemetrexed + AZD7762 = compound: Nc1nc2[nH]cc(CCc3ccc(C(=O)N[C@@H](CCC(=O)O)C(=O)O)cc3)c2c(=O)[nH]1 [Pemetrexed] + NC(=O)Nc1cc(-c2cccc(F)c2)sc1C(=O)N[C@H]1CCCNC1 [AZD7762] (partner 0.2 µM)
Summary of the method: as §1

Idelalisib + Luminespib = compound: CC[C@H](Nc1ncnc2[nH]cnc12)c1nc2cccc(F)c2c(=O)n1-c1ccccc1 [Idelalisib] + CCNC(=O)c1noc(-c2cc(C(C)C)c(O)cc2O)c1-c1ccc(CN2CCOCC2)cc1 [Luminespib] (partner 0.01 µM)
Summary of the method: as §1

Idelalisib + Palbociclib = compound: CC[C@H](Nc1ncnc2[nH]cnc12)c1nc2cccc(F)c2c(=O)n1-c1ccccc1 [Idelalisib] + CC(=O)c1c(C)c2cnc(Nc3ccc(N4CCNCC4)cn3)nc2n(C2CCCC2)c1=O [Palbociclib] (partner 0.5 µM)
Summary of the method: as §1

Cell Line | relative viability (Idelalisib + AZD7762; first compound 0.04 µM) | relative viability (Idelalisib + AZD7762; first compound 0.1265 µM) | relative viability (Idelalisib + AZD7762; first compound 0.4 µM) | relative viability (Idelalisib + AZD7762; first compound 1.265 µM) | relative viability (Idelalisib + AZD7762; first compound 4 µM) | relative viability (Pemetrexed + AZD7762; first compound 0.002 µM) | relative viability (Pemetrexed + AZD7762; first compound 0.006325 µM) | relative viability (Pemetrexed + AZD7762; first compound 0.02 µM) | relative viability (Pemetrexed + AZD7762; first compound 0.06325 µM) | relative viability (Pemetrexed + AZD7762; first compound 0.2 µM) | relative viability (Idelalisib + Luminespib; first compound 0.04 µM) | relative viability (Idelalisib + Luminespib; first compound 0.1265 µM) | relative viability (Idelalisib + Luminespib; first compound 0.4 µM) | relative viability (Idelalisib + Luminespib; first compound 1.265 µM) | relative viability (Idelalisib + Luminespib; first compound 4 µM) | relative viability (Idelalisib + Palbociclib; first compound 0.04 µM) | relative viability (Idelalisib + Palbociclib; first compound 0.1265 µM) | relative viability (Idelalisib + Palbociclib; first compound 0.4 µM) | relative viability (Idelalisib + Palbociclib; first compound 1.265 µM) | relative viability (Idelalisib + Palbociclib; first compound 4 µM)
EMC-BAC-2 | 1.08 | 1.1 | 1.02 | 1.11 | 1.08 | 1.1 | 0.944 | 1.14 | 0.948 | 0.69 | 1.34 | 1.24 | 1.03 | 1.25 | 1.13 | 0.546 | 0.502 | 0.489 | 0.522 | 0.482
EPLC-272H | 0.202 | 0.171 | 0.28 | 0.124 | 0.153 | 0.117 | 0.206 | 0.259 | 0.176 | 0.169 | 0.521 | 0.291 | 0.309 | 0.265 | 0.325 | 0.724 | 0.346 | 0.29 | 0.307 | 0.322
H3255 | 0.956 | 0.859 | 0.911 | 0.909 | 0.802 | 0.798 | 0.916 | 0.928 | 0.79 | 0.571 | 1.13 | 0.786 | 0.78 | 0.882 | 0.878 | 0.33 | 0.297 | 0.287 | 0.35 | 0.338
HARA | 0.309 | 0.301 | – | 0.169 | 0.392 | 0.272 | 0.302 | 0.582 | 0.259 | 0.128 | 0.778 | 0.642 | 0.613 | 0.683 | 0.6 | 0.334 | 0.223 | 0.261 | 0.238 | 0.225
HCC-15 | 1.35 | 0.909 | 1.25 | 1.16 | 1.21 | 1.11 | 1.13 | 1.48 | 0.903 | 0.448 | 0.185 | 0.242 | 0.286 | 0.26 | 0.404 | 0.815 | 0.73 | 0.633 | 0.832 | 0.598
HCC-44 | 1.04 | 0.998 | 1.03 | 0.991 | 1.11 | 0.928 | 1.01 | 0.991 | 1.03 | 0.944 | 1.25 | 1.06 | 0.852 | 1.18 | 1.05 | 1.02 | 0.887 | 0.984 | 1.04 | 0.96
HCC-78 | 0.509 | 0.649 | 0.555 | 0.609 | 0.547 | – | 0.505 | 0.42 | 0.3 | 0.236 | – | – | – | – | – | 0.443 | 0.446 | 0.411 | 0.466 | 0.352
HCC-366 | 0.248 | 0.317 | 0.242 | 0.106 | 0.249 | 0.228 | 0.239 | 0.308 | 0.254 | 0.158 | – | – | – | – | – | 0.35 | 0.384 | 0.39 | 0.393 | 0.353
HCC-827 | 0.216 | 0.212 | 0.31 | 0.153 | 0.199 | 0.192 | 0.276 | 0.26 | 0.183 | 0.164 | 1.18 | 0.545 | 0.478 | 0.249 | 0.374 | 0.507 | 0.471 | 0.426 | 0.349 | 0.378
